The text below walks through data of patent publication US20250197387A1, “BCL-XL DEGRADERS AND USES THEREOF” (Kymera Therapeutics, Inc., priority 2021, published 2025).

The experiment concerns the target T1, BCL-XL (Homo sapiens, UniProt Q07817).
T1 construct: endogenous in cells; host or cells: MOLT-4
The experiment can be described thus: Bcl-xL ELISA degradation in MOLT-4 cells, 6 h. Format: cell-based. To be noted: for DC50: read-out: Bcl-xL ELISA in MOLT-4 degradation 6 h: Mean external-Abs DC50. How it is done:
The letter codes for BCL-XL DC50 include: A (<0.01 μM); B (0.01-0.1 μM); C (>[…]); D (>0.5-1.0 μM); and E (>1.0 μM). The letter codes for Dmax % include A (>75%); B (50 to 75%); C (<50%).
On the technique in general: An ELISA detects its analyte on a solid surface through an enzyme-linked reagent.

Bounds are passed on as bounds.

T1 sequence (Q07817 whole entry): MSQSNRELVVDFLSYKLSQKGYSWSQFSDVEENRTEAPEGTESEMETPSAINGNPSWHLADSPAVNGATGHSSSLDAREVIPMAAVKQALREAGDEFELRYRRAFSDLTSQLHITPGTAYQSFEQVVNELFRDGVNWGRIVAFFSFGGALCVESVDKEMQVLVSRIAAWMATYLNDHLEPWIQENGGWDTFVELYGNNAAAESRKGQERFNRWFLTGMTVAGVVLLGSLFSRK

One may read the Dmax as the greatest extent of degradation seen. Turning to `Cc1ncsc1-c1ccc([C@H](C)NC(=O)[C@@H]2C[C@@H](O)CN2C(=O)[C@@H](NC(=O)N2CCN(CC#Cc3ccc(OCCCc4sc(N5CCc6cccc(C(=O)Nc7nc8ccccc8s7)c6C5)nc4C(=O)O)c(F)c3)CC2)C(C)(C)C)cc1` [I-73], the Dmax is less than 50%.
By DC50 is commonly meant the concentration at which degradation of the target reaches its halfway point. For `C#Cc1ccc(CNC(=O)[C@@H]2C[C@@H](O)CN2C(=O)[C@@H](c2cc(N3CCN(c4ccc(S(=O)(=O)NC(=O)c5nc(N6CCc7cccc(C(=O)Nc8nc9ccccc9s8)c7C6)ccc5-c5cnn(CC6CCCCC6)c5C)cc4)CC3)no2)C(C)C)c(OC)c1` [I-263], the greatest degradation seen (Dmax) was 50 to 75% and the 50% degradation concentration (DC50) lay in the range of 10 to 100 nM.
With `Cc1ncsc1-c1ccc([C@H](C)NC(=O)[C@@H]2C[C@@H](O)CN2C(=O)[C@@H](NC(=O)C2CCN(c3ncc(S(=O)(=O)NC(=O)c4nc(N5CCc6cccc(C(=O)Nc7nc8ccccc8s7)c6C5)ccc4-c4cnn(CC5CCCCC5)c4C)cn3)CC2)C(C)(C)C)cc1` [I-250], the Dmax is greater than 75% and the DC50 was 10 to 100 nM.
In turn, `Cc1ncsc1-c1ccc([C@H](C)NC(=O)[C@@H]2C[C@@H](O)CN2C(=O)C(c2cc(N3CCC(CN4CCC(NC(=O)c5nc(N6CCc7cccc(C(=O)Nc8nc9ccccc9s8)c7C6)ccc5-c5cnn(CC6CCCCC6)c5C)CC4)CC3)no2)C(C)C)cc1` (some centres unmarked) [I-238] showed a Dmax of less than 50%.
As for `Cc1ncsc1-c1ccc([C@H](C)NC(=O)[C@@H]2C[C@@H](O)CN2C(=O)[C@H](c2cc(N3CC4(CN(c5ccc(S(=O)(=O)NC(=O)c6nc(N7CCc8cccc(C(=O)Nc9nc%10ccccc%10s9)c8C7)ccc6-c6cnn(CC7CCCCC7)c6C)cc5)C4)C3)no2)C(C)C)cc1` [I-225], the maximal degradation (Dmax) is 50 to 75% and the DC50 was in the range of 10 to 100 nM.
For `Cc1ncsc1-c1ccc([C@H](C)NC(=O)[C@@H]2C[C@@H](O)CN2C(=O)[C@@H](NC(=O)N2CCC(N3CCC(S(=O)(=O)NC(=O)c4nc(N5CCc6cccc(C(=O)Nc7nc8ccccc8s7)c6C5)ccc4-c4cnn(CC5CCCCC5)c4C)CC3)CC2)C(C)(C)C)cc1` [I-258], the Dmax was 50 to 75% and the DC50 lay in the range of 100 to 500 nM.
As for `Cc1ncsc1-c1ccc([C@H](C)NC(=O)[C@@H]2C[C@@H](O)CN2C(=O)C(c2cc(OC3CCN(CCCCNC(=O)c4nc(N5CCc6cccc(C(=O)Nc7nc8ccccc8s7)c6C5)ccc4-c4cnn(CC5CCCCC5)c4C)CC3)no2)C(C)C)cc1` (some centres unmarked) [I-233], the maximal degradation (Dmax) was less than 50% and the 50% degradation concentration (DC50) is greater than 1000 nM.
For `Cc1cc(C(C(=O)N2C[C@H](O)C[C@H]2C(=O)NCc2ccc(-c3scnc3C)cc2OCCN2CCN(CC[C@H](CSc3ccccc3)Nc3ccc(S(=O)(=O)NC(=O)c4ccc(N5CCN(CC6=C(c7ccc(Cl)cc7)CCC(C)(C)C6)CC5)cc4)cc3S(=O)(=O)C(F)(F)F)CC2)C(C)C)on1` (some centres unmarked) [I-282], in that order: 50 to 75% and 100 to 500 nM.
Turning to `Cc1ncsc1-c1ccc([C@H](C)NC(=O)[C@@H]2C[C@@H](O)CN2C(=O)[C@@H](NC(=O)C2CC3CCC(C2)N3c2ccc(S(=O)(=O)NC(=O)c3nc(N4CCc5cccc(C(=O)Nc6nc7ccccc7s6)c5C4)ccc3-c3cnn(CC4CCCCC4)c3C)cc2)C(C)(C)C)cc1` (some centres unmarked) [I-278], the Dmax was greater than 75% and the DC50 lay in the range of 10 to 100 nM.
As to `Cc1ncsc1-c1ccc([C@H](C)NC(=O)[C@@H]2C[C@@H](O)CN2C(=O)[C@@H](NC(=O)C2CCN(c3ccc(S(=O)(=O)NC(=O)c4nc(N5CCc6cccc(C(=O)Nc7nc8ccccc8s7)c6C5)ccc4-c4cnn(CC5CCOCC5)c4C)cc3)CC2)C(C)(C)C)cc1` [I-260], the Dmax is 50 to 75% and the half-maximal degradation concentration (DC50) was 100 to 500 nM.
Turning to `C#Cc1ccc([C@H](CO)NC(=O)[C@@H]2C[C@@H](O)CN2C(=O)[C@@H](NC(=O)C2CCN(c3ccc(S(=O)(=O)NC(=O)c4nc(N(C)c5cc(C)c(Nc6nc7ccccc7s6)nn5)ccc4-c4cnn(CC5(CC)CC6CC(C)CC(C6)C5)c4C)cc3)CC2)C(C)(C)C)cc1` (some centres unmarked) [I-245], the greatest degradation seen (Dmax) was greater than 75% and the DC50 was 10 to 100 nM.
